From US20230149508A1, “COMPOSITIONS AND METHODS FOR TREATING COMPLICATIONS OF VIRAL INFECTIONS AND OTHER RESPIRATORY DISORDERS” (priority 2020, published 2023)
Entries after “also recorded” stand apart in the source; their conditions may differ. Peptide text beside a SMILES is read from it. * marks the point of attachment. Biotin = O=C1N[C@H]2[C@H](CS[C@H]2CCCCC(=O)*)N1; Ahx = NCCCCCC(=O)O

Columns and labels:
[1] = tested on: rats; experiment: Intravenous (bolus) toxicity of aCT1 in rats; type: in vivo, rat; settings: intravenous bolus
Procedure: (§1) Clinical signs were only observed at aCT1 administration levels that are well above the therapeutic range of efficacy, following intravenous administration of aCT1 at ≥10 mg/kg (Maximum Tolerated Dose). The results of these studies uniformly support aCT1 tolerability when delivered locally and systemically via various routes.

[2] = Intravenous (bolus) toxicity of aCT1 in rats; type: in vivo, rat; settings: rat, in vivo
Procedure: as §1

[3] = tested on: Human lung microvascular endothelial cells (HLMEC); experiment: TER of HLMEC after LPS exposure; type: cell-based; settings: n=3, p<0.0001 vs LPS
Procedure: Human lung microvascular endothelial cells (HLMEC) were exposed to 10 μg LPS. Cells were treated with aCT1 prior to exposure or 24 hrs post LPS insult, scrambled control, or sham control. […] (n=3, compared to LPS ***:p<0.0001).
(§2) To determine if aCT1 treatment preserves junctional integrity in human lung cells, human bronchial epithelial cells (NHBEs) were grown as confluent monolayers on Transwell inserts and trans-epithelial resistance (TER) recorded. TER readings measure electrical resistance across a cell monolayer and provide a quantitative metric of intercellular junction integrity.

[4] = tested on: C57BL/6 mice intranasally challenged with a lethal dose of lipopolysaccharide (LPS); experiment: Lethal LPS-induced lung injury (ARDS) mouse model, survival; type: in vivo; settings: p<0.01 vs LPS, n=10/group
Procedure: C57BL/6 mice were pretreated with either 1000 uM aCT1, 1000 uM scrambled aCT1, or vehicle control prior to inoculation with a lethal dose (35 mg/kg/mouse) of LPS. A further group was treated with aCT1 6 hrs post inoculation of LPS. n=10/group (p<0.01 LPS vs LPS pre-aCT1, p<0.01 LPS vs LPS post aCT1).
Studies were undertaken to assess whether delivery of aCT1 to the respiratory tract in animal models of ARDS would reduce epithelial and endothelial breakdown, thereby preserving the air-liquid barrier while preventing fluid accumulation and reducing immune cell infiltration, resulting in the amelioration of ARDS pathology and preserving lung function to improve survival. Using a well characterized mouse model of ARDS, we investigated whether aCT1 applied directly to the lungs could inhibit severe endotoxin induced lung injury. C57BL/6 mice were intranasally challenged with a lethal dose of lipopolysaccharide (LPS) and were treated with aCT1 immediately prior to LPS administration, or 6 h post LPS exposure (FIG. 2).

[5] = tested on: normal human bronchial epithelial cells (NHBE); experiment: Trans-epithelial resistance (TER) of NHBE monolayers after H2O2 exposure; type: cell-based; settings: aCT1 pre-treatment, exposure to 100 mM H2O2; n=3
Procedure: (n=3, compared to H2O2 *:p<0.05, **:p<0.01, ***:p<0.0001)
as §2

[6] = tested on: human subjects; settings: in vivo
Description: (§3) Clinical trials have been undertaken to assess safety of topical delivery of aCT1.

[7] = Description: as §3
[8] = tested on: human subjects; settings: local (topical) delivery, clinical trials; cited from earlier work

In the case of `CC[C@H](C)[C@H](NC(=O)[C@H](CCC(=O)O)NC(=O)[C@H](CC(C)C)NC(=O)[C@H](CC(=O)O)NC(=O)[C@H](CC(=O)O)NC(=O)[C@@H]1CCCN1C(=O)[C@H](CCCNC(=N)N)NC(=O)[C@@H]1CCCN1C(=O)[C@H](CCCNC(=N)N)NC(=O)[C@H](CCCCN)NC(=O)[C@H](CCCCN)NC(=O)[C@H](Cc1c[nH]c2ccccc12)NC(=O)[C@@H]1CCCN1C(=O)[C@H](CCCCN)NC(=O)[C@H](CCCNC(=N)N)NC(=O)[C@H](CCCNC(=N)N)NC(=O)[C@H](CC(N)=O)NC(=O)[C@@H]1CCCN1C(=O)[C@H](Cc1ccccc1)NC(=O)[C@H](Cc1c[nH]c2ccccc12)NC(=O)[C@@H](NC(=O)[C@H](CCCCN)NC(=O)[C@@H]1CCCN1C(=O)[C@H](CCC(N)=O)NC(=O)[C@H](CCCNC(=N)N)NC(=O)CCCCCNC(=O)CCCC[C@@H]1SC[C@@H]2NC(=O)N[C@@H]21)[C@@H](C)CC)C(=O)O` [aCT1] ({Biotin-Ahx}-RQPKIWFPNRRKPWKKRPRPDDLEI-OH; N-terminus and C-terminus assumed), the Tolerability [1] is reported as “well tolerated”, the MTD ([2]; intravenous administration, read-out: Dose at which clinical signs were observed (Maximum Tolerated Dose)) is reported as at least 10 mg/kg and the NOAEL ([2]; intravenous bolus, read-out: no-observable-adverse-effect level (NOAEL)) is reported as 5 mg/kg. For the same compound, the “TER (endothelial barrier integrity)” value ([3]; aCT1 pre-treatment prior to 10 μg LPS) was “significantly improved endothelial TER readings; also recorded: preserved barrier integrity”, the “TER (endothelial barrier integrity)” value ([3]; aCT1 treatment 24 hrs post LPS insult (10 μg LPS)) was “significantly improved endothelial TER readings; also recorded: preserved barrier integrity” and the “Survival / LPS-induced mortality” value ([4]; aCT1 treatment 6 hrs post LPS inoculation (35 mg/kg/mouse)) was “significant protection against LPS-induced mortality; also recorded: significantly improved survival”. For the same compound, the “Survival / LPS-induced mortality” value ([4]; intranasal 1000 uM aCT1 pre-treatment prior to lethal LPS (35 mg/kg/mouse)) was “significant protection against LPS-induced mortality; also recorded: significantly improved survival”, the “TER (epithelial barrier integrity)” value [5] was “significantly increased TER readings; also recorded: stabilized intercellular junctions” and the “Drug related adverse events” value [6] was “no drug related adverse events”. The “Systemic exposure (pharmacokinetic studies in clinical trials)” value [6] was “no systemic exposure”, the “Immunogenicity (anti-aCT1 antibodies)” value ([7]; any preclinical study or clinical trial) was “not immunogenic” and the half-life ([7]; human) was 15 to 20 min. The “Efficacy and safety in acute and chronic skin injuries” value [8] was “demonstrated the efficacy and safety”.
